Assay results taken from the supplement of paper PMC10307832.

Key:
Assay in all cases: relative viability (nuclei count vs DMSO), 5 days (fraction); higher = more cells survive
BAM7 + Phenformin = compound: CCOC1=CC=CC=C1N=NC2=C(NN(C2=O)C3=NC(=CS3)C4=CC=CC=C4)C [BAM7] + N=C(N)NC(=N)NCCc1ccccc1 [Phenformin] (partner 250 µM)
Outline: (§1)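 Each reported value is a median over duplicate plates. It expresses relative viability: treated-well nuclei count divided by vehicle-well nuclei count. Lung cancer cell lines in 1536-well plates were dosed by pin tool a day after seeding, alone with one drug or with a fixed anchor-drug dose plus five library-drug doses (not always all listed) in √10 steps, and nuclei were counted after 5 days.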

[1] = compound: CCn1c(-c2nonc2N)nc2c(C#CC(C)(C)O)ncc(OC[C@H]3CCCNC3)c21 + CC1(C)CCC(c2ccc(Cl)cc2)=C(CN2CCN(c3ccc(C(=O)NS(=O)(=O)c4ccc(N[C@H](CCN5CCOCC5)CSc5ccccc5)c(S(=O)(=O)C(F)(F)F)c4)cc3)CC2)C1 [Navitoclax] (partner 0.5 µM)
Outline: as §1

BAM7 + Trametinib = compound: CCOC1=CC=CC=C1N=NC2=C(NN(C2=O)C3=NC(=CS3)C4=CC=CC=C4)C [BAM7] + CC(=O)Nc1cccc(-n2c(=O)n(C3CC3)c(=O)c3c(Nc4ccc(I)cc4F)n(C)c(=O)c(C)c32)c1 [Trametinib] (partner 0.02 µM)
Outline: as §1

BAM7 + Decitabine = compound: CCOC1=CC=CC=C1N=NC2=C(NN(C2=O)C3=NC(=CS3)C4=CC=CC=C4)C [BAM7] + Nc1ncn([C@H]2C[C@H](O)[C@@H](CO)O2)c(=O)n1 [Decitabine] (partner 2 µM)
Outline: as §1

For NCI-H322M, the relative viability (BAM7 + Phenformin; first compound 0.5 µM) was 0.77, the relative viability (BAM7 + Phenformin; first compound 5 µM) was 0.805 and the relative viability (BAM7 + Phenformin; first compound 15.81 µM) was 0.806. The relative viability (BAM7 + Phenformin; first compound 50 µM) was 0.799, the relative viability ([1]; first compound 0.01 µM) was 1.25 and the relative viability ([1]; first compound 0.03162 µM) was 1.27. The relative viability ([1]; first compound 0.1 µM) was 1.17, the relative viability ([1]; first compound 0.3162 µM) was 1.13 and the relative viability ([1]; first compound 1 µM) was 1.23. For the same cell line, the relative viability (BAM7 + Trametinib; first compound 0.5 µM) was 0.525, the relative viability (BAM7 + Trametinib; first compound 5 µM) was 0.577 and the relative viability (BAM7 + Trametinib; first compound 15.81 µM) was 0.496. It also gave a relative viability (BAM7 + Trametinib; first compound 50 µM) of 0.571, a relative viability (BAM7 + Decitabine; first compound 0.5 µM) of 0.761 and a relative viability (BAM7 + Decitabine; first compound 5 µM) of 0.722. For the same cell line, the relative viability (BAM7 + Decitabine; first compound 15.81 µM) was 0.742 and the relative viability (BAM7 + Decitabine; first compound 50 µM) was 0.692.
NCI-H838 gave a relative viability (BAM7 + Phenformin; first compound 0.5 µM) of 0.544, a relative viability (BAM7 + Phenformin; first compound 5 µM) of 0.572 and a relative viability (BAM7 + Phenformin; first compound 15.81 µM) of 0.597. For the same cell line, the relative viability (BAM7 + Phenformin; first compound 50 µM) was 0.648, the relative viability ([1]; first compound 0.01 µM) was 1.15 and the relative viability ([1]; first compound 0.03162 µM) was 1.22. It also gave a relative viability ([1]; first compound 0.1 µM) of 1.2, a relative viability ([1]; first compound 0.3162 µM) of 1.03 and a relative viability ([1]; first compound 1 µM) of 1.19. For the same cell line, the relative viability (BAM7 + Trametinib; first compound 0.5 µM) was 0.504, the relative viability (BAM7 + Trametinib; first compound 5 µM) was 0.524 and the relative viability (BAM7 + Trametinib; first compound 15.81 µM) was 0.498. The relative viability (BAM7 + Trametinib; first compound 50 µM) was 0.494, the relative viability (BAM7 + Decitabine; first compound 0.5 µM) was 0.514 and the relative viability (BAM7 + Decitabine; first compound 5 µM) was 0.447. The relative viability (BAM7 + Decitabine; first compound 15.81 µM) was 0.452 and the relative viability (BAM7 + Decitabine; first compound 50 µM) was 0.478.
Work on NCI-H2342 yielded a relative viability (BAM7 + Phenformin; first compound 0.5 µM) of 0.59, a relative viability (BAM7 + Phenformin; first compound 5 µM) of 0.739 and a relative viability (BAM7 + Phenformin; first compound 15.81 µM) of 0.594. For the same cell line, the relative viability (BAM7 + Phenformin; first compound 50 µM) was 0.521, the relative viability (BAM7 + Trametinib; first compound 0.5 µM) was 0.933 and the relative viability (BAM7 + Trametinib; first compound 5 µM) was 0.818. The relative viability (BAM7 + Trametinib; first compound 15.81 µM) was 0.745, the relative viability (BAM7 + Trametinib; first compound 50 µM) was 0.82 and the relative viability (BAM7 + Decitabine; first compound 0.5 µM) was 0.821. For the same cell line, the relative viability (BAM7 + Decitabine; first compound 5 µM) was 0.669, the relative viability (BAM7 + Decitabine; first compound 15.81 µM) was 0.594 and the relative viability (BAM7 + Decitabine; first compound 50 µM) was 0.551.
NCI-H650 was tested, and the relative viability (BAM7 + Phenformin; first compound 0.5 µM) was 0.443, the relative viability (BAM7 + Phenformin; first compound 5 µM) was 0.506 and the relative viability (BAM7 + Phenformin; first compound 15.81 µM) was 0.499. The relative viability (BAM7 + Phenformin; first compound 50 µM) was 0.495, the relative viability (BAM7 + Trametinib; first compound 0.5 µM) was 1.02 and the relative viability (BAM7 + Trametinib; first compound 5 µM) was 0.98. For the same cell line, the relative viability (BAM7 + Trametinib; first compound 15.81 µM) was 1.04, the relative viability (BAM7 + Trametinib; first compound 50 µM) was 1.28 and the relative viability (BAM7 + Decitabine; first compound 0.5 µM) was 0.297. It also gave a relative viability (BAM7 + Decitabine; first compound 5 µM) of 0.323, a relative viability (BAM7 + Decitabine; first compound 15.81 µM) of 0.315 and a relative viability (BAM7 + Decitabine; first compound 50 µM) of 0.448.
A549 was tested, and the relative viability (BAM7 + Phenformin; first compound 0.5 µM) was 0.161, the relative viability (BAM7 + Phenformin; first compound 5 µM) was 0.213 and the relative viability (BAM7 + Phenformin; first compound 15.81 µM) was 0.219. For the same cell line, the relative viability (BAM7 + Phenformin; first compound 50 µM) was 0.216, the relative viability ([1]; first compound 0.01 µM) was 1.16 and the relative viability ([1]; first compound 0.03162 µM) was 1.35. For the same cell line, the relative viability ([1]; first compound 0.1 µM) was 1.28, the relative viability ([1]; first compound 0.3162 µM) was 1.08 and the relative viability ([1]; first compound 1 µM) was 1.06. For the same cell line, the relative viability (BAM7 + Decitabine; first compound 0.5 µM) was 0.288, the relative viability (BAM7 + Decitabine; first compound 5 µM) was 0.29 and the relative viability (BAM7 + Decitabine; first compound 15.81 µM) was 0.251. The relative viability (BAM7 + Decitabine; first compound 50 µM) was 0.288.
In the case of NCI-H358, the relative viability (BAM7 + Phenformin; first compound 0.5 µM) is reported as 0.343, the relative viability (BAM7 + Phenformin; first compound 5 µM) is reported as 0.383 and the relative viability (BAM7 + Phenformin; first compound 15.81 µM) is reported as 0.369. The relative viability (BAM7 + Phenformin; first compound 50 µM) was 0.376, the relative viability (BAM7 + Trametinib; first compound 5 µM) was 0.152 and the relative viability (BAM7 + Trametinib; first compound 15.81 µM) was 0.137. It also gave a relative viability (BAM7 + Trametinib; first compound 50 µM) of 0.126, a relative viability (BAM7 + Decitabine; first compound 5 µM) of 0.199 and a relative viability (BAM7 + Decitabine; first compound 15.81 µM) of 0.232. The relative viability (BAM7 + Decitabine; first compound 50 µM) was 0.224.
With NCI-H1563 the relative viability (BAM7 + Phenformin; first compound 0.5 µM) was 0.62, the relative viability (BAM7 + Phenformin; first compound 5 µM) was 0.685 and the relative viability (BAM7 + Phenformin; first compound 15.81 µM) was 0.654. The relative viability (BAM7 + Phenformin; first compound 50 µM) was 0.685.
In the case of SW 900, the relative viability (BAM7 + Phenformin; first compound 0.5 µM) is reported as 0.548, the relative viability (BAM7 + Phenformin; first compound 5 µM) is reported as 0.544 and the relative viability (BAM7 + Phenformin; first compound 15.81 µM) is reported as 0.576. The relative viability (BAM7 + Phenformin; first compound 50 µM) was 0.759, the relative viability (BAM7 + Trametinib; first compound 5 µM) was 0.72 and the relative viability (BAM7 + Trametinib; first compound 50 µM) was 0.888. It also gave a relative viability (BAM7 + Decitabine; first compound 5 µM) of 0.465 and a relative viability (BAM7 + Decitabine; first compound 50 µM) of 0.494.
In the case of IA-LM, the relative viability ([1]; first compound 0.01 µM) is reported as 0.76, the relative viability ([1]; first compound 0.03162 µM) is reported as 0.66 and the relative viability ([1]; first compound 0.1 µM) is reported as 0.929. For the same cell line, the relative viability ([1]; first compound 0.3162 µM) was 0.576 and the relative viability ([1]; first compound 1 µM) was 0.313.
In the case of NCI-H1703, the relative viability ([1]; first compound 0.01 µM) is reported as 1.12, the relative viability ([1]; first compound 0.03162 µM) is reported as 0.959 and the relative viability ([1]; first compound 0.1 µM) is reported as 0.857. The relative viability ([1]; first compound 0.3162 µM) was 1.04 and the relative viability ([1]; first compound 1 µM) was 0.505.
LCLC-103H was tested, and the relative viability (BAM7 + Phenformin; first compound 0.5 µM) was 0.334, the relative viability (BAM7 + Phenformin; first compound 5 µM) was 0.354 and the relative viability (BAM7 + Phenformin; first compound 15.81 µM) was 0.336. The relative viability (BAM7 + Phenformin; first compound 50 µM) was 0.327, the relative viability (BAM7 + Trametinib; first compound 0.5 µM) was 0.664 and the relative viability (BAM7 + Trametinib; first compound 5 µM) was 0.706. The relative viability (BAM7 + Trametinib; first compound 15.81 µM) was 0.69, the relative viability (BAM7 + Trametinib; first compound 50 µM) was 0.684 and the relative viability (BAM7 + Decitabine; first compound 0.5 µM) was 0.751. For the same cell line, the relative viability (BAM7 + Decitabine; first compound 5 µM) was 0.77, the relative viability (BAM7 + Decitabine; first compound 15.81 µM) was 0.709 and the relative viability (BAM7 + Decitabine; first compound 50 µM) was 0.708.
With NCI-H1648 the relative viability (BAM7 + Trametinib; first compound 0.5 µM) was 0.558, the relative viability (BAM7 + Trametinib; first compound 5 µM) was 0.476 and the relative viability (BAM7 + Trametinib; first compound 15.81 µM) was 0.421. The relative viability (BAM7 + Trametinib; first compound 50 µM) was 0.464, the relative viability (BAM7 + Decitabine; first compound 0.5 µM) was 0.395 and the relative viability (BAM7 + Decitabine; first compound 5 µM) was 0.642. It also gave a relative viability (BAM7 + Decitabine; first compound 15.81 µM) of 0.432 and a relative viability (BAM7 + Decitabine; first compound 50 µM) of 0.404.
